Consider 13 compounds from ChEMBL document CHEMBL1129615, “Synthesis and quantitative structure-activity relationship of 17 beta-(hydrazonomethyl)-5 beta-androstane-3 beta,14 beta-diol derivatives that bind to Na+,K(+)-ATPase receptor” (J Med Chem, 1996).

System in one series: not listed separately
Briefly: Acid dissociation constant was determined. The class given is ADME.
A word on the pKa: it is the negative logarithm of the acid dissociation constant. A high value points to a group that holds its proton tightly. With `C[C@]12CC[C@H](O)C[C@H]1CC[C@@H]1[C@@H]2CC[C@]2(C)[C@@H](/C=N/N=C(N)N)CC[C@]12O.Cl`, the pKa came out at 9.35.

With `CN1CCN=C1N/N=C/[C@H]1CC[C@]2(O)[C@@H]3CC[C@@H]4C[C@@H](O)CC[C@]4(C)[C@H]3CC[C@]12C`, the pKa was 8.05.

`C/C(=N\N=C(N)N)[C@H]1CC[C@]2(O)[C@@H]3CC[C@@H]4C[C@@H](O)CC[C@]4(C)[C@H]3CC[C@]12C` returned a pKa of 9.49.

Compound `C[C@]12CC[C@H](O)C[C@H]1CC[C@@H]1[C@@H]2CC[C@]2(C)[C@@H](/C=N/NC3=NC(=O)CN3)CC[C@]12O` showed a pKa of 3.58.

On to `C[C@]12CC[C@H](O)C[C@H]1CC[C@@H]1[C@@H]2CC[C@]2(C)[C@@H](/C=N/NC(N)=O)CC[C@]12O`, for which the pKa was found to be 1.78.

On to `C[C@]12CC[C@H](O)C[C@H]1CC[C@@H]1[C@@H]2CC[C@]2(C)[C@@H](/C=N/N=C(\N)S)CC[C@]12O`, for which the pKa was determined as 0.86.

For `C[C@]12CC[C@H](O)C[C@H]1CC[C@@H]1[C@@H]2CC[C@]2(C)[C@@H](/C=N/NC3=NCCN3)CC[C@]12O`, the pKa is 8.42.

With `C[C@]12CC[C@H](O)C[C@H]1CC[C@@H]1[C@@H]2CC[C@]2(C)[C@@H](/C=N/NC3=NCCCN3)CC[C@]12O`, the pKa worked out at 10.4.

For the compound `C[C@]12CC[C@H](O)C[C@H]1CC[C@@H]1[C@@H]2CC[C@]2(C)[C@@H](/C=N/Nc3ccccn3)CC[C@]12O`, the pKa worked out at 6.34.

`C[C@]12CC[C@H](O)C[C@H]1CC[C@@H]1[C@@H]2CC[C@]2(C)[C@@H](/C=N/Nc3ncccn3)CC[C@]12O` registered a pKa of 3.44.

In turn, `CSC(=N)N/N=C/[C@H]1CC[C@]2(O)[C@@H]3CC[C@@H]4C[C@@H](O)CC[C@]4(C)[C@H]3CC[C@]12C` yielded a pKa of 5.76.

`C[C@]12CC[C@H](O)C[C@H]1CC[C@@H]1[C@@H]2CC[C@]2(C)[C@@H](/C=N/N=C(\N)Nc3ccccc3)CC[C@]12O` had a pKa of 8.62.

Take `C/N=C(\C[N+](=O)[O-])N/N=C/[C@H]1CC[C@]2(O)[C@@H]3CC[C@@H]4C[C@@H](O)CC[C@]4(C)[C@H]3CC[C@]12C`: the pKa was 2.37.

Another series concerns the target Sodium/potassium-transporting ATPase. The series is described as follows: Displacement of [3H]ouabain from dog kidney Na+/K+ ATPase. In kind it is protein-complex assay, Canis lupus familiaris. Background: Displacement assays read how much labelled ligand stays bound in the presence of the test substance.
Consider `C[C@]12CC[C@H](O)C[C@H]1CC[C@@H]1[C@@H]2CC[C@]2(C)[C@@H](/C=N/N=C(N)N)CC[C@]12O.Cl`, for which the “-Log IC50” value is 7.

As to `CN1CCN=C1N/N=C/[C@H]1CC[C@]2(O)[C@@H]3CC[C@@H]4C[C@@H](O)CC[C@]4(C)[C@H]3CC[C@]12C`, the “-Log IC50” value is recorded as 6.

`C/C(=N\N=C(N)N)[C@H]1CC[C@]2(O)[C@@H]3CC[C@@H]4C[C@@H](O)CC[C@]4(C)[C@H]3CC[C@]12C`: the “-Log IC50” value was determined as 6.7.

Regarding `C[C@]12CC[C@H](O)C[C@H]1CC[C@@H]1[C@@H]2CC[C@]2(C)[C@@H](/C=N/NC3=NC(=O)CN3)CC[C@]12O`, the “-Log IC50” value is recorded as 4.7.

`C[C@]12CC[C@H](O)C[C@H]1CC[C@@H]1[C@@H]2CC[C@]2(C)[C@@H](/C=N/NC(N)=O)CC[C@]12O`: the “-Log IC50” value came out at 5.1.

For `C[C@]12CC[C@H](O)C[C@H]1CC[C@@H]1[C@@H]2CC[C@]2(C)[C@@H](/C=N/N=C(\N)S)CC[C@]12O`, the “-Log IC50” value amounted to 4.7.

In the case of `C[C@]12CC[C@H](O)C[C@H]1CC[C@@H]1[C@@H]2CC[C@]2(C)[C@@H](/C=N/NC3=NCCN3)CC[C@]12O`, the “-Log IC50” value was 6.7.

For the compound `C[C@]12CC[C@H](O)C[C@H]1CC[C@@H]1[C@@H]2CC[C@]2(C)[C@@H](/C=N/NC3=NCCCN3)CC[C@]12O`, the “-Log IC50” value was found to be 6.6.

For the compound `C[C@]12CC[C@H](O)C[C@H]1CC[C@@H]1[C@@H]2CC[C@]2(C)[C@@H](/C=N/Nc3ccccn3)CC[C@]12O`, the “-Log IC50” value was 5.7.

In the case of `C[C@]12CC[C@H](O)C[C@H]1CC[C@@H]1[C@@H]2CC[C@]2(C)[C@@H](/C=N/Nc3ncccn3)CC[C@]12O`, the “-Log IC50” value worked out at 4.6.

Regarding `CSC(=N)N/N=C/[C@H]1CC[C@]2(O)[C@@H]3CC[C@@H]4C[C@@H](O)CC[C@]4(C)[C@H]3CC[C@]12C`, the “-Log IC50” value came to 5.7.

`C[C@]12CC[C@H](O)C[C@H]1CC[C@@H]1[C@@H]2CC[C@]2(C)[C@@H](/C=N/N=C(\N)Nc3ccccc3)CC[C@]12O`: the “-Log IC50” value is on record as 5.2.

With `C/N=C(\C[N+](=O)[O-])N/N=C/[C@H]1CC[C@]2(O)[C@@H]3CC[C@@H]4C[C@@H](O)CC[C@]4(C)[C@H]3CC[C@]12C`, the “-Log IC50” value amounted to 4.5.
